Earlier results on one compound are cited in US20250332118A1, “NOVEL ORAL CARE FORMULATIONS FOR TREATMENT OF XEROSTOMIA” (priority 2022, published 2025).

For this series the following is noted: @ 79° F.

On to `CS(C)(=O)=O` [MSM, Methylsulfonylmethane], for which the Water solubility is reported as 34 % w/v.
